{
  "source": "the NIST ThermoML archive (doi:10.1016/j.jct.2018.03.025)",
  "key": {"[1]": {"conditions": "298.2 K; 101.33 kPa; Liquid; Vibrating tube method"}, "[2]": {"experiment": "refractive index (Na D-line) (dimensionless)", "conditions": "298.2 K; 101.33 kPa; Liquid; Standard Abbe refractometry"}, "[3]": {"experiment": "wn = mass fraction of the nth substance listed", "conditions": "298.2 K; 101.3 kPa; Liquid; Vibrating tube method; w1 = 0.85"}, "[4]": {"experiment": "refractive index (Na D-line) (dimensionless); wn = mass fraction of the nth substance listed", "conditions": "298.2 K; 101.3 kPa; Liquid; Standard Abbe refractometry; w1 = 0.85"}},
  "note": "Numbers after ± are expanded uncertainties.",
  "data": [
    {"smiles": "CCCCCOC(C)=O", "note": "[pentyl ethanoate]", "values": [
      {"measurement": "mass density", "setting": "[1]", "value": "872.02 ± 1.2", "unit": "kg/m3"},
      {"measurement": "refractive index", "setting": "[2]", "value": "1.3991 ± 0.0011"}
    ]},
    {"smiles": "O=P(O)(O)O", "note": "[phosphoric acid] + O", "values": [
      {"measurement": "mass density", "setting": "[3]", "value": "1682.7 ± 1.1", "unit": "kg/m3"},
      {"measurement": "refractive index", "setting": "[4]", "value": "1.432 ± 0.001"}
    ]},
    {"smiles": "CCCOC(C)=O", "note": "[propyl ethanoate]", "values": [
      {"measurement": "mass density", "setting": "[1]", "value": "882.26 ± 1.2", "unit": "kg/m3"},
      {"measurement": "refractive index", "setting": "[2]", "value": "1.383 ± 0.0011"}
    ]},
    {"smiles": "O", "note": "[water]", "values": [
      {"measurement": "refractive index", "setting": "[2]", "value": "1.3325 ± 0.001"}
    ]}
  ]
}
